Data: patent publication US12649718B2, “Synthesis of n,n-dimethyltryptamine-type compounds, methods, and uses preliminary class 548” (CYBIN UK LTD, priority 2019, dated 2026)

Assays:
[1] = Solubility in water (vessel cleaning note); assay type: physicochemical; conditions: Stage 3 vessel cleaning information
[2] = hashed area of FIG. 2; cited from earlier work
humans = conditions: 0.05 mg/kg to 0.4 mg/kg; bolus injections or prolonged infusions; only mild to moderate adverse effects; cited from earlier work
[3] = tested on: individuals who have ingested 5-MeO-DMT; conditions: cited from earlier work
[4] = cited from earlier work
[5] = self-report, uncontrolled setting, Davis et al. 2018

For CN(C)CCc1c[nH]c2ccccc12.O=C(O)/C=C/C(=O)O [API, N,N-DMT fumarate], the Solubility in water [1] was “API highly soluble”.
In the case of CN(C)CCc1c[nH]c2ccccc12 [DMT, N, N-dimethyltryptamine], the “Effect site concentrations experienced as full dissociation from the external world” value [2] is given as over 60 ng/mL and the Tolerability (humans) is given as “well-tolerated”.
In the case of COc1ccc2[nH]cc(CCN(C)C)c2c1 [Mixture 5-MeO-DMT, 5-methoxy-N, N-dimethyltryptamine], the “Individuals with alcoholism or hazardous drinking reporting improvements” value ([3]; n=75 out of 113) is listed as 66%, the “Participants indicating symptoms improved: anxiety” value [3, 5] is listed as 69% and the “Participants indicating symptoms improved: depression” value [3, 5] is listed as 77%. For the same compound, the “Participants indicating symptoms improved: post-traumatic stress disorder” value [3, 5] was 79%, the Half-life ([4]; rapidly metabolized, H-W. Shen et al. 2010) was 12 to 19 min and the Oral bioavailability ([4]; without coadministration alongside a monoamine oxidase inhibitor) was “not orally bioavailable”.
